Laboratory results from patent US12433903B2 (priority 2021, dated 2025).
“Also recorded” adds a separate entry of the source. Like-named read-outs stand apart in the source and are kept apart here.

Tests used:
PTZ-induced seizure = experiment: PTZ-induced epilepsy (seizure) mouse model; type: in vivo; settings: 100 mg/kg IP, CBD 60 minutes, Compound 3 30 minutes prior to PTZ 80 mg/kg; for Survival Effects: mortality rate compared to the vehicle/PTZ group: 30 minute observation
Source text: Mouse models using GABAa receptor antagonist Pentylenetetrazol (PTZ) are well defined and used as a standard for the identification of potential anticonvulsants to treat generalized clonic seizures (Loscher et al., 1991 Epilepsy Res 8:171-189). The purpose of this study was to evaluate and compare CBD to test article Compound 3, on their therapeutic effects in a mouse model of PTZ-induced seizure. To match up test article plasma concentration time max (Tmax) with the PTZ induced seizures; test articles were administered at 60 minutes and 30 minutes prior to PTZ administration respectively. Vehicle used for treatment groups was 10% EtOH/10% Tween 80/80% Saline.
Mice were acclimated to the procedure room for at least 30 minutes. Pentylenetetrazole (PTZ; Sigma Aldrich) was formulated in water to a concentration of 16 mg/mL. Injections of PTZ were made at a volume of 5 mL/kg to produce a final dose of 80 mg/kg.
A 30-minute maximum latency to seizure was imposed. • Clinical behavior was scored using the following adapted Racine scale: • Score 0, no seizures observed • Score 1, Behavioral arrest (freezing, fixed gaze, staring), vibrissae twitching, mouth or facial clonus • Score 2, Pop or jump, straub tail, foot splay, head nodding • Score 3, Forelimb clonus, extended forelimbs, multiple pops or jerks • Score 4, Rearing and bilateral forelimb clonus, Running and running/bouncing • Score 5, All limb clonus, rearing and falling (stay fallen on rear side) • Score 6, Tonic hindlimb extensions, cardiac arrest
Behavior was scored by an observer blind to treatment. The highest score reached during every 5 minute period during the 30 minutes after PTZ was administered was recorded. Additionally, the percent tonic-clonic (number of animals progressing to the highest seizure score), and percent mortality was also calculated.

[1] = PK and Tmax after intraperitoneal administration; type: in vivo; settings: male C57BL/6 mice; for Tmax: mouse, in vivo
Source text: The purpose of this study was to determine the pharmacokinetics and time of maximum plasma (Tmax) of the test articles (TA) CBD and Compound 3 following intraperitoneal (IP) administration to male C57BL/6 mice. This method of TA delivery, dose and mouse strain was to be used in a subsequent Pentylenetetrazol (PTZ) induced seizure model for the evaluation of the TA's for anti-epileptic activity.

[2] = PK study after oral (PO) or intraperitoneal (IP) administration; type: in vivo, male Sprague Dawley rats; settings: CBG 30 mg/kg PO or IP; Compound 1 31.5 mg/kg PO; Compound 2 32.7 mg/kg PO
Method: This study evaluated the pharmacokinetics of (E)-2-(3,7-dimethylocta-2,6-dien-1-yl)-3-methoxy-5-pentylphenol (1) and (E)-2-(3,7-dimethylocta-2,6-dien-1-yl)-1,3-dimethoxy-5-pentylbenzene (2) following oral (PO) or intraperitoneal (IP) administration to male Sprague Dawley rats.
For the oral formulation the test article was added to the appropriate amount of Maisine and stirred until uniform. Next Labrasol was added to the formulation and allowed to stir until uniform. Finally, water will be slowly added to the stirring formulation to achieve the final volume.
For the IP formulation the test article was added to the appropriate amount of ethanol and stirred until uniform. Next, the appropriate amount of tween-20 was added to the stirred formulation. Finally, the appropriate amount of saline was slowly added to the stirred formulation to achieve the final volume.
Animals were fasted the evening prior to dosing with food returned at 4 h postdose, and the animals weighed on the morning of dose administration.
IP doses were administered via injection to the intraperitoneal region. PO doses were delivered into the stomach via syringe and gavage tube.
Blood was collected from via direct jugular stick or from the tail vein. Blood samples were kept on ice until being centrifuged at 3200 RPM for 10 minutes at ˜5° C. within 1 h of collection. Plasma was split into 2 cryovials in approximately equal volumes (0.05 mLs) and stored at −20° C.±5° C. until shipment.

[3] = tested on: lipopolysaccharide (LPS)-induced inflammation; experiment: Anti-inflammatory activity in a rat LPS model (serum cytokines); type: in vivo, Sprague Dawley rats; settings: PO QD x 4, LPS 5 mg/kg IP, 2 h after LPS
Method: This assay was employed to determine the efficacies of CBG, compound 1, and compound 2 against lipopolysaccharide (LPS)-induced inflammation in Sprague Dawley rats.
Eight- to 10-week-old male rats were treated with CBG, Compound 1, and Compound 2, or a positive control (cyclosporin A) for four days prior to treatment with LPS. Twenty-eight (28) Sprague Dawley male rats, 8-10 weeks old, were used for this study. Animals were randomized by weight into one of 7 treatment groups as shown in Table 10 below and treated for 4 days with either vehicle control (Groups 1 and 2), Cyclosporin A (Neoral) (Group 3), CBG at 30 mg/kg (Group 4), Compound 1 at 31.5 mg/kg (Group 5), Compound 2 at 32.7 mg/kg (Group 6) or CBG at 30 mg/kg (intraperitoneal/IP; Group 7). Groups 1-6 were dosed for 4 days by oral gavage; group 7 was dosed for 4 days by IP injection. After the 4th injection, Groups 2-7 received a single IP injection of LPS at 5 mg/kg to induce inflammation. Body weight was recorded every other day starting on the day of or day prior to the first day of treatment. A terminal body weight was recorded. General health and clinical signs were recorded once daily. Blood was collected to isolate immune cells at 2 hours after the LPS injection. […]
Serum samples (N=82) were processed and shipped to Inotiv Boulder for analysis. […] The samples were analyzed for cytokine levels using the RECYTMAG-65K Luminex™ kit. […]

[4] = tested on: indomethacin induced intestinal injury; experiment: Indomethacin-induced Crohn's disease in rats; type: in vivo
Method: The objective of this study was to determine the efficacy of Compound 1 and Compound 2 in a model of Crohn's disease (indomethacin induced intestinal injury) in rats.
The study design was identical for Compound 1 and Compound 2. On study day -3, rats were weighed and distributed into treatment groups based on body weight.
On study day 0, treatment was initiated and continue as indicated in the Study Design Tables below. Groups 2-6 received a subcutaneous injection of indomethacin (9 mg/kg, 1 ml/kg) in 5% sodium bicarbonate (Sterile Water). On study day 1, Groups 2-6 received a second subcutaneous injection of indomethacin (8 mg/kg, 1 ml/kg) in 5% sodium bicarbonate (Sterile Water). Live phase sample & data collection specifics are outlined below. On study day 4, animals will be euthanized, a section of the small intestine will be removed and weighed. Further necropsy sample and data collection is specified below. Overall efficacy of test articles will be based on body weight, small intestine weight (10 cm), small intestine gross score, and histopathology
At necropsy, the small intestines were evaluated visually and given a gross score according to the following criteria: 0=Normal. 0.5=Very Minimal thickening, multifocal in area at risk. 1=Minimal thickening, fairly diffuse in area at risk. 2=Mild to moderate small intestinal/mesenteric thickening throughout area at risk. 3=Moderate thickening with 1 or more definite adhesions that would be easy to separate. 4=Marked thickening with numerous hard to separate adhesions. 5=Severe intestinal lesion resulting in death.
Preserved 9-cm sections of small intestine were trimmed into 6 transverse sections collected at approximately equal intervals along the […] of the intestine, without bias toward lesion presence or absence. These trimmed sections were processed through graded alcohols and a clearing agent, infiltrated and embedded in paraffin, sectioned, and stained with hematoxylin and eosin (H&E).
Small intestine sections from all animals were examined microscopically by a board-certified veterinary pathologist, and observations were entered into a computer-assisted data retrieval system. Cross sections of small intestine were scored for inflammation and necrosis using the following criteria:
The area at risk for development of this lesion is generally approximately 30% of the total area of a cross section of small intestine where the mesentery attaches.
Inflammation is localized to the mesentery and intestinal area at risk for necrosis with slight extension on either side of it. […] In this case, inflammation is scored based on overall severity ranging from 0.5 (very minimal) to 5 (severe) without regard for the extent of necrosis. The mean score for necrosis and inflammation was calculated for each animal and these mean scores were then summed to arrive at a total score. Each section also has a measurement of total width of mucosal necrosis.

For `C=C(C)[C@@H]1CCC(C)=C[C@H]1c1c(O)cc(CCCCC)cc1O` [CBD, cannabidiol], the “Latency to Clonic Seizure Event compared to PTZ alone” value (PTZ-induced seizure) was “did not yield a significantly different latency”, the “Latency to First Seizure Event compared to PTZ alone” value (PTZ-induced seizure) was “did not result in a difference in latency to first seizure” and the “Latency to Tonic Seizure Event compared to PTZ alone” value (PTZ-induced seizure) was “did not yield a significantly different latency”. The “Percent of animals reaching Tonic-clonic Stage 6 compared to PTZ alone” value (PTZ-induced seizure) was “did not yield a significantly difference in proportion; also recorded: did not yield a significant difference in proportion”, the “Racine scores over 5 minute intervals for 30 minutes compared to PTZ alone” value (PTZ-induced seizure) was “did not yield a significant change in clinical score” and the “Survival Effects: mortality rate compared to the vehicle/PTZ group” value (PTZ-induced seizure) was “did not yield a significantly reduced mortality rate”. For the same compound, the Tmax ([1]; 100 mg/kg, IP) was 60 min.

In the case of `CCCCCc1cc(OC)c(C/C=C(\C)CCC=C(C)C)c(OC)c1` [Compound 2, (E)-2-(3,7-dimethylocta-2,6-dien-1-yl)-1,3-dimethoxy-5-pentylbenzene], the “glucuronidation / glucuronide formation in plasma (in words)” value [2] is reported as “completely blocked glucuronide formation”, the “reduction of IL-1B and IFNy, performance relative to CBG” value [3] is reported as “equal to or better than CBG” and the “small intestine gross score compared to vehicle” value ([4]; Group 4 (Compound 1: 50 mg/kg PO)) is reported as “trend in lower small intestine gross score”. The “reduction of necrosis width, of vehicle” value ([4]; Group 5) was 99%, the “histopathology scores vs vehicle and dexamethasone” value ([4]; Group 5 & 6) was “significantly lower” and the “necrosis width vs vehicle and dexamethasone” value ([4]; Group 5 & 6) was “significantly lower”. The “reduction of necrosis width, of vehicle” value ([4]; Group 6) was 96%, the “Histopathology scores vs vehicle (Group 2)” value ([4]; Groups 4-6) was “lower than the vehicle” and the “necrosis width vs vehicle (Group 2)” value ([4]; Groups 4-6) was “lower than the vehicle”. For the same compound, the “small intestine gross score compared to vehicle” value ([4]; Groups 5-6 (Compound 1: 200 and 800 mg/kg PO)) was “significant reductions in gross score”, the “small intestine weight compared to vehicle” value ([4]; all three treatment groups (Groups 4-6), PO days 0-3) was “significantly lower” and the “body weight change from Study Day -3 (preventing weight loss)” value ([4]; all treatment groups (Groups 4-6), PO days 0-3, in comparison to dexamethasone (Compound 2: and vehicle)) was “all trended towards or had significant differences in preventing weight loss”.

With `C=C(C)[C@@H]1CCC(C)=C[C@H]1c1c(O)cc(CCCCC)cc1OC` [Compound 3, (1′R,2′R)-6-methoxy-5′-methyl-4-pentyl-2′-(prop-1-en-2-yl)-1′,2′,3′,4′-tetrahydro-[1,1′-biphenyl]-2-ol] the “reduction of IL-1B and IFNy, performance relative to CBG” value [3] was “equal to or better than CBG”, the “Latency to Clonic Seizure Event compared to PTZ alone” value (PTZ-induced seizure) was “did not yield a significantly different latency; also recorded: strong trend toward longer latency” and the “Latency to First Seizure Event compared to PTZ alone” value (PTZ-induced seizure) was “trended towards a longer latency”. For the same compound, the “Latency to Tonic Seizure Event compared to PTZ alone” value (PTZ-induced seizure) was “significantly longer latency”, the “Percent of animals reaching Tonic-clonic Stage 6 compared to PTZ alone” value (PTZ-induced seizure) was “significantly lower proportion” and the “Racine scores over 5 minute intervals for 30 minutes compared to PTZ alone” value (PTZ-induced seizure) was “significant improvement in Racine scores”. The “Survival Effects: mortality rate compared to the vehicle/PTZ group” value (PTZ-induced seizure) was “significantly reduced mortality rate”, the “Cmax, fold greater than CBD” value ([1]; IP) was 8 fold and the “plasma PK Area Under the Curve (AUC), fold greater than CBD” value ([1]; IP) was “over 4 fold”. The Tmax ([1]; plasma, 100 mg/kg IP, read-out: TMax (converted)) was 30 min.
